The text below walks through data of patent US11896593B2, “Sulfamate derivative compounds for use in treating or alleviating a psychiatric disorder” (Bio-Pharm Solutions Co., Ltd., priority 2020, dated 2024).

Marks after values point to notes of the source that are not given here.

For one assay, the system named is Wistar male rats. Description: Forced swim test (rat, rFST). It counts as in vivo. The settings on record: for Immobile posture time (sec.)/4 minutes, Treatment: rat, administered orally 60 minutes before testing. As to the method:
In order to determine the anti-depressant effect in rodents, the forced swim test was performed with rats and mice. The forced swim test causes an immobile state by forcing an animal to swim in a confined space. It reflects a state of despair giving up evading such a circumstance. ICR male mice (25 g to 30 g) and Wistar male rats (240 g to 260 g) were purchased from Samtako Bio Korea Co. (Korea) and allowed to acclimatize for 1 week before being tested in a controlled animal facility (temperature 22±2° C., humidity 55±5%). The test compound was dissolved in 20% Tween80 and administered orally 60 minutes before testing. The control group was provided with a corresponding vehicle. […] 15 minutes of forced swimming was performed a day before the experiment. On the day of the experiment, the animal was placed in the cylinder 60 minutes after the administration of the compound and was videotaped for 6 minutes. In the recorded videos, time during which the animal placed its head on the water and remained still without movement was measured based on the remaining 4 minutes excluding the first 2 minutes. It was evaluated that the lower the value of the immobile posture time, the greater the anti-depressant action (Reference; Porsolt R D, Le Pichon M. Jalfre M. 1997. Depression: a new animal model sensitive to antidepressant treatments. Nature. April 21; 266(5604):730-2.).
The result was shown as the standard error of measurement (SEM) of mean value t mean value. Behavioral data were analyzed by one-way ANOVA. For statistical significance, a value of <0.05 was taken (***p<0.001, **p=0.001˜0.01, *p=0.01˜0.05). Data management and statistics were performed using the Prism software of Windows version 4 (GraphPad Softward Co., San Diego, CA, USA).
Based on the results of Table 7, the ED50 value of the compound of Example 2 was calculated and shown in Table 7, and after 30 mg/kg and 60 mg/kg of the compounds of the other remaining examples were administered based on TD50 values to perform the forced swim tests, respectively, the administration doses with protected efficacy and protection % at the corresponding administration doses were shown in Table 7.

Another assay concerns ICR male mice. Description: Light dark choice test. In kind it is in vivo. The settings on record: mouse, 60 minutes before testing. As to the method: The light-dark choice test is a model for anxiety-like behavior. This test is based on innate aversion of rodents to brightly lit areas and their voluntary exploration behaviors for light stress factors, that is, new environments and light. ICR male mice (30 g to 35 g) were purchased from Orient Bio Korea Co. (Korea) and allowed to acclimatize for 1 week before being tested in a controlled animal facility (temperature 22±2° C., humidity 55±5%). When treatment began, the weight of the animals was 35±5% g. The test compound for oral administration was dissolved in 30% PEG400 and administered at a dose per body weight of 10 mL/kg 60 minutes before testing. The test compound for intraperitoneal administration was dissolved in 20% Tween80 and administered at a dose per body weight of 10 mL/kg 60 minutes before testing. The control group was provided with a corresponding vehicle. An acryl box (45 cm×27 cm×27 cm) was composed of 2 chambers (white color: ⅔ of the box, black color: ⅓ of the box) connected by an opening (7.5 cm×7.5 cm) located at the bottom surface of the center of a partition wall. Each mouse was placed in the white part of the box and allowed to roam freely for a 5-minute session. At the end of the session, mice were returned to their habitat cage, and the experimental box was cleanly wiped with a 70% alcohol solution. All experiments were videotaped. After testing, all video recordings were analyzed. The obtained results are shown in Table 5 below (Reference; Bourin, M., Hascoet, M. 2003. The mouse light/dark box test. European Journal of Pharmacology, 463, 55-65. Bouwknecht, J A., Paylor, R. 2002. Behavioral and physiological mouse assays for anxiety: a survey in nine mouse strains. Behavioural Brain Research, 136, 489-501.).

In general, ED50 refers to the midpoint of the dose-response relation. Read a low ED50 as greater potency. In turn, `CC1(C)O[C@@H](COS(N)(=O)=O)[C@H](c2ccccc2Cl)O1` [Example 2, ((4S,5S)-5-(2-chlorophenyl)-2,2-dimethyl-1,3-dioxolan-4-yl)methyl sulfamate] gave an ED50 with Wistar male rats (rat forced swim test, po) of 13.3 mg/kg. The “Immobile posture time (sec.)/4 minutes, Treatment” value in the assay on Wistar male rats (5 mg/kg) is 160.7 ± 3.8 sec./4 minutes; with Wistar male rats (10 mg/kg), 117.3 ± 12.2** sec./4 minutes; in the assay with Wistar male rats (20 mg/kg) it was 51.0 ± 11.6** sec./4 minutes. In addition, the “White box duration time (sec.)/5 minutes, Treatment” value came out at 189.0 ± 10.8 sec./5 minutes in the assay with ICR male mice (intraperitoneal, 10 mg/kg); 208.1 ± 13.2 sec./5 minutes in the assay with ICR male mice (intraperitoneal, 30 mg/kg); 219.2 ± 13.3 sec./5 minutes with ICR male mice (intraperitoneal, 40 mg/kg); 136.4 ± 4.2 sec./5 minutes with ICR male mice (oral, 10 mg/kg); 140.0 ± 12.3 sec./5 minutes in the assay on ICR male mice (oral, 30 mg/kg); 193.1 ± 8.7 sec./5 minutes in the assay with ICR male mice (oral, 40 mg/kg).
